Experimental data published in PubChem BioAssay AID489006 (Sanford-Burnham Center for Chemical Genomics, 2010).
The source made the active and inactive calls. How the calls were made is not given here.

Test system: Jurkat NF-kB reporter, luminescence
Test: NF-kB reporter inhibition in Jurkat cells, dose response, selectivity assay for B-cell receptor NF-kB inhibitor project, cell-based, luminescence (AID 489006)

SMILES	IC50
CCOC(=O)C1CCN(c2ncnc3c2cnn3-c2ccc(OC)cc2)CC1	> 80 µM (inactive)
CCOC(=O)c1nn(-c2ccccc2)c(C#N)c1NC(=O)c1nn(CC)cc1Br	> 80 µM (inactive)
CCOC(=O)c1sc(NC(=O)c2cc(-c3ccccc3C)nc3ccccc23)c(C#N)c1C	> 80 µM (inactive)
COc1cc(C[C@@H]2C(=O)OC[C@H]2Cc2ccc(OC)c(OC)c2)ccc1O	> 80 µM (inactive)
COc1ccc(NC(=S)NCc2ccccc2)c(OC)c1	> 80 µM (inactive)
Oc1cc(O)cc(-c2cc3ccc(O)cc3o2)c1	> 80 µM (inactive)
Cc1ccc(C(=O)OCC(=O)N(CC(C)C)c2c(N)n(Cc3ccccc3)c(=O)[nH]c2=O)o1	> 80 µM (inactive)
CCN(CC)c1ccc2cc(NC(=O)CCC(=O)O)c(=O)oc2c1	0.46 µM
COc1ccc(-c2noc(N3CCC(C(=O)Nc4cccc(OC)c4)CC3)n2)cc1	> 80 µM (inactive)
COc1cccc(N2CCN(c3ncnc4c3[nH]c3ccc(F)cc34)CC2C)c1 (stereo unspecified)	1.31 µM
C/C(=N\Nc1nc(Nc2ccccc2)nc(N2CCOCC2)n1)c1cccs1	> 80 µM (inactive)
N=c1ccn2c(n1)O[C@H]1[C@H](O)[C@@H](CO)O[C@H]12	0.64 µM
COc1ccc(C(=O)Nc2cccc(NC(=O)c3ccc(OC)c(OC)c3)n2)cc1OC	9.7 µM
Cc1ccc(C)c(-n2nnnc2Sc2nnnn2-c2ccccc2)c1	1.42 µM
CCCN1C(=O)/C(=C/c2c(N3CCNC(=O)C3CC(=O)OCC)nc3c(C)cccn3c2=O)SC1=S (stereo unspecified)	24.4 µM (inactive)
COc1cc2c3c(c1)c(N=NC(N)=S)c(O)n3C(C)(C)C=C2C	> 80 µM (inactive)
CSC1CCCCC1(O)CSc1nc2c(cc1C#N)CCCC2 (stereo unspecified)	> 80 µM (inactive)
COc1cccc(Cn2nnc(C(=O)Nc3cc(Cl)ccc3OC)c2N)c1	> 80 µM (inactive)
c1ccc(CCNc2ncnc3ccccc23)cc1	64.2 µM (inactive)
COc1ccc(-c2ccc(C)cc2)cc1[C@H]1[C@H]2C=CC[C@@H](C)[C@@H]2C(=O)N1Cc1ccccc1	> 80 µM (inactive)
CCC(=O)N1c2ccccc2[C@@H](N(C(C)=O)c2ccccc2)C[C@H]1C	57 µM (inactive)
N=c1c2c(n(Cc3ccc(Cl)c(Cl)c3)c3c1CCC3)CCCC2	9.18 µM
COc1ccc(-c2noc(CCCC(=O)O)n2)cc1	1.4 µM
COCCNC(=O)CSCc1nc(-c2ccc(SC)cc2)oc1C	> 80 µM (inactive)

SMILES	IC50
COc1ccc(/C=C2/SC(=S)N(CCCC(=O)Nc3ccc(O)cc3)C2=O)cc1OC	> 80 µM (inactive)
O=S(=O)(NCc1ccncc1)c1ccc(Br)s1	> 80 µM (inactive)
CCCCCCn1c(-c2ccco2)nc2oc3cc(OC)ccc3c(=O)c2c1=O	> 80 µM (inactive)
CCN(CC(=O)Nc1c(F)cccc1F)C(=O)c1cc(S(=O)(=O)N2CCOCC2)ccc1N1CCCC1	> 80 µM (inactive)
COC(=O)C1=C(c2ccc(-c3ccccc3)c(F)c2)C[C@@H]2CC[C@H]1N2C(=O)N1CCCC1	35.8 µM (inactive)
Cc1ccc(-c2nn3c(C)nnc3c3ccccc23)cc1S(=O)(=O)N1CCN(CCO)CC1	43.4 µM (inactive)
Cn1c(=O)n(C)c2cc(/C=C3/NC(=O)N(Cc4ccccc4)C3=O)ccc21	> 80 µM (inactive)
CNC(=O)CSc1nc2nn(-c3ccccc3)c(=O)c-2c2n1CCCCC2	> 80 µM (inactive)
Cc1nn(C)c(C)c1CN(C)S(=O)(=O)c1ccc2ccccc2c1	> 80 µM (inactive)
CCOc1ccc(-c2cc(CCCC(=O)NCc3ccco3)no2)cc1	> 80 µM (inactive)
CC1=CC(C)(C)Nc2ccc(OC(=O)c3cccnc3)cc21	1.17 µM
CCc1sc(C(=O)Nc2cccc(-n3cnnn3)c2)cc1C	> 80 µM (inactive)
CCCc1nc2c(C)cc(-c3nc4ccccc4n3C)cc2n1Cc1ccc(-c2ccccc2C(=O)O)cc1	> 80 µM (inactive)
CC1=CC(C)(C)Nc2ccc(OC(=O)C(Cc3ccccc3)N3C(=O)c4ccccc4C3=O)cc21 (stereo unspecified)	7.32 µM
Cc1cc(C)c2nc(NC(=O)[C@@H](NC(=O)c3cccc(S(=O)(=O)N4CCOCC4)c3)C(C)C)sc2c1	20.8 µM (inactive)
Cc1nn(C(C)(C)C)c(C)c1/C=N/OC(=O)Nc1ccc(Cl)c(Cl)c1	0.208 µM
COc1cc(NC(=O)c2cc3c(C)nc4ccccc4c3o2)cc(OC)c1OC	> 80 µM (inactive)
CCc1ccc(/C=C2/SC(=S)N(CCC(=O)Nc3cccc(C(=O)O)c3)C2=O)cc1	> 80 µM (inactive)
CCSc1ncc(Cl)c(C(=O)Nc2sc3c(c2C(=O)NCc2cccnc2)CCCC3)n1	> 80 µM (inactive)
COc1ccc(/C=C2\SC(=S)N(CCC(=O)Nc3ccc(C(=O)O)cc3)C2=O)cc1OC	> 80 µM (inactive)
CCCCOc1ccc(NC(=O)C(=O)NCCCn2ccnc2)cc1	> 80 µM (inactive)
Cc1ccc(C2(c3ccc(C)cc3)CC2C(=O)Nc2ccc([N+](=O)[O-])cc2O)cc1 (stereo unspecified)	50.1 µM (inactive)
Cc1nc2cc(-c3ccccc3)nn2c(C)c1CCC(=O)N1CCC2(CC1)OCCO2	> 80 µM (inactive)
COc1ccc(-n2c(-c3ccc(Br)cc3)c[n+]3c2CCc2ccccc2-3)cc1	31.8 µM (inactive)

SMILES	IC50
CCOc1ccc(/C=C2\SC(=S)N(CCC(=O)Nc3ccc(C(=O)O)cc3)C2=O)cc1	> 80 µM (inactive)
CCNC(=O)CCc1nc(-c2ccc(C(C)(C)C)cc2)no1	> 80 µM (inactive)
O=C(N/N=C/c1cccnc1)c1cc(-c2ccccc2OCc2ccccc2)n[nH]1	> 80 µM (inactive)
O=C(CSCCO)Nc1ccc(C23CC4CC(CC(C4)C2)C3)cc1	> 80 µM (inactive)
CCOC(=O)C(=CNc1cc(C)ccc1C)C(=O)OCC	> 80 µM (inactive)
COc1ccc(OCc2cccc(C(=O)NN)c2)cc1	5.14 µM
COc1cc(NC(=O)c2ccco2)c(OC)cc1NC(=O)c1cc(OC)c(OC)c(OC)c1	23 µM (inactive)
COc1ccc(/C=C/c2ccccc2)cc1[C@H]1[C@H]2C=CC[C@@H](C)[C@@H]2C(=O)N1Cc1ccccc1	> 80 µM (inactive)
CN1C(=O)CSc2ccc(NC(=O)N3CCN(c4ccccc4)CC3)cc21	> 80 µM (inactive)
CC(C)(C)c1ccc(-n2ncc3c2CCCC3NC(=O)C2(C(N)=O)CC2)cc1 (stereo unspecified)	> 80 µM (inactive)
COc1ccc(-c2n(Cc3ccccc3)c3ccccc3[n+]2Cc2ccccc2)cc1	42.7 µM (inactive)
COc1cc(/C(C)=N\NC(N)=S)cc(OC)c1OC	72.5 µM (inactive)
CCN(CC)C(=O)c1ccc(S(=O)(=O)Cc2ccc(C)cc2)c([N+](=O)[O-])c1	7.08 µM
CCOc1cc(/C=N\Nc2nc(Nc3ccccc3)nc(N3CCOCC3)n2)ccc1OC(=O)c1ccco1	> 80 µM (inactive)
Cc1ccc(C(=O)NNC(=O)CCCN2C(=O)/C(=C/c3ccccc3Cl)SC2=S)cc1	4.81 µM
CCc1ccc2[nH]c3nc(N/N=C/c4cccc(O)c4)nnc3c2c1	> 80 µM (inactive)
COc1cc(Br)c(C(=O)c2nccc3cc(OC)c(OC)cc23)cc1OC	> 80 µM (inactive)
Cc1ccc(/C=C2\SC(=S)N(CCCC(=O)Nc3cccnc3)C2=O)cc1	6.11 µM
CCCC(=O)Nc1ccc(Sc2ccc([N+](=O)[O-])cc2)cc1	15.9 µM
Cc1ccc(-c2nn3c(C)nnc3c3ccccc23)cc1S(=O)(=O)NCCN1CCOCC1	> 80 µM (inactive)
COc1cc(-c2nc3ccc(N4CCN(C)CC4)cc3[nH]2)cc(OC)c1OC	> 80 µM (inactive)
CC(C)Oc1ccc(C(=O)Nc2ccc(N(C)C)cc2)cc1	> 80 µM (inactive)
O=C(CCCN1C(=O)/C(=C/c2ccccc2Cl)SC1=S)NNC(=O)c1ccc(Cl)cc1	2.04 µM
Cn1c(=O)n(C)c2cc(NC(=O)CSc3nnc(-c4ccccc4O)n3-c3ccccc3)ccc21	50.1 µM (inactive)

SMILES	IC50
CCN(CC(=O)Nc1c(F)cccc1F)C(=O)c1cc(S(=O)(=O)N(C)C)ccc1N1CCCC1	> 80 µM (inactive)
O=C(NCCC1CCCCN1S(=O)(=O)c1ccc(Cl)cc1)C(=O)NCc1ccncc1 (stereo unspecified)	> 80 µM (inactive)
CCc1ccc(-c2nc(CSCC(=O)NC3CC3)c(C)o2)cc1	38.5 µM (inactive)
Cc1cccc(C(=O)Nc2ccc(CC(=O)O)cc2)c1	7.41 µM
NC(=S)N=Nc1c(O)n(Cc2ccccc2)c2ccccc12	23.9 µM (inactive)
C[C@H]1CCC/C=C/[C@@H]2C[C@H](O)C[C@H]2[C@H](O)/C=C/C(=O)O1	> 80 µM (inactive)
CCn1c(=O)cc(SCC(=O)N2CCOCC2)c2ccccc21	> 80 µM (inactive)
CCn1c(=O)cc(SCC(=O)N2CCCCC2)c2ccccc21	> 80 µM (inactive)
Cc1c(CC(=O)NCCCC(=O)O)c(=O)oc2cc3c(cc12)CCC(C)(C)O3	4.17 µM
O=C(Oc1cccc(/C=N/Nc2nc(N3CCOCC3)nc(N3CCOCC3)n2)c1)c1ccco1	> 80 µM (inactive)
O=C(O)CCSc1nc2ccccc2s1	6.75 µM
CCOc1ccc(-c2nnc(SCC(=O)Nc3cc(C)on3)o2)cc1	1.52 µM
Cc1nc([N+](=O)[O-])c(Sc2nc3ccc([N+](=O)[O-])cc3[nH]2)n1Cc1ccccc1	7.42 µM
CC(C)C(=O)Nc1ccc(NC(=O)c2ccc3c(c2)OCO3)cc1	> 80 µM (inactive)
COc1ccc(NC(=O)c2cc3c(Cl)nc4ccccc4c3s2)cc1OC	61.9 µM (inactive)
O=[N+]([O-])c1ccc(Sc2cc[n+]([O-])c3ccccc23)c([N+](=O)[O-])c1	6.03 µM
COc1ccc(OC)c(C2CC(=O)Nc3cc(OC)c(OC)c(OC)c32)c1 (stereo unspecified)	> 80 µM (inactive)
COc1ccc(-c2ccoc2)cc1[C@H]1[C@H]2C=CC[C@@H](C)[C@@H]2C(=O)N1Cc1ccccc1	50.4 µM (inactive)
COc1ccc(C(=O)N/N=C/c2sc(N3CCOCC3)nc2-c2ccccc2)cc1OC	35.5 µM (inactive)
CCOC(=O)N1CCN(c2ncnc3c2[nH]c2ccc(OC)cc23)CC1	61 µM (inactive)
COc1ccc(C2=NCc3nnc(C)n3-c3ccc(Cl)cc32)cc1Cl	36.4 µM (inactive)
O=C(O)CCn1c(O)c(C=C2N=c3ccccc3=N2)sc1=S	1.46 µM
Cc1ccc(-c2nn3c(C)nnc3c3ccccc23)cc1S(=O)(=O)NCc1ccco1	46.7 µM (inactive)
CCOC(=O)Cc1csc(NC(=S)NC(=O)c2ccc(C)cc2)n1	0.72 µM
